Assay results published in patent US20230181535A1, “UBIQUITIN-LIGASE INHIBITORS FOR THE TREATMENT OF CANCER” (FUNDACIÓN PROFESOR NOVOA SANTOS, priority 2020, published 2023).
Entries after “also recorded” stand apart in the source; their conditions may differ.

Tests used:
[1] = target: T1, E3 ubiquitin-ligase Hakai (Mus musculus, UniProt Q9JIY2); test: In vivo Hakai-dependent ubiquitination assay in 293T cells; format: cell-based; conditions: vs DMSO
T1 construct: expressed in transfected cells; host or cells: HEK293T
T1 sequence (Q9JIY2 1-491): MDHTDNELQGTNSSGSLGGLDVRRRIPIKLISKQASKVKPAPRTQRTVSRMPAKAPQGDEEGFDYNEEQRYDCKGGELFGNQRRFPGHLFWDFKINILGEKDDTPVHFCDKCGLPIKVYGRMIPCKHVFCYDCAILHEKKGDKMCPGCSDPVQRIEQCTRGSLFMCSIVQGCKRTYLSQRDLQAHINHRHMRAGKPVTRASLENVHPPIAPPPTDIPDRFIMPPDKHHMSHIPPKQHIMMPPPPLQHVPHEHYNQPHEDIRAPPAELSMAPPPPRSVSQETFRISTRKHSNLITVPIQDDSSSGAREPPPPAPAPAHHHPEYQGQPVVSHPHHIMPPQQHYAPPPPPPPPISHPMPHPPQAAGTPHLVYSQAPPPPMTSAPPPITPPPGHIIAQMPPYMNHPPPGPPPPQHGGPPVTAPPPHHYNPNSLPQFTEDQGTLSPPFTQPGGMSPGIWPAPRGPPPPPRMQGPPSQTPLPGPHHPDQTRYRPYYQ
Procedure: For ubiquitination assays, 750.000 HEK293T cells were seeded in 6-well cell culture plates and after 24 h were transfected with 0.25 μg Src, 0.75 μg Flag-Hakai, and 0.5 μg HA-ubiquitin with Lipofectamin 2000 (Invitrogen, UK). Six hours after transfection cells were treated with indicated concentrations of Hakin-1, Hakin-5 or the rest of the compounds tested for 36 h. Whole cell extracts were obtained in lysis buffer (20 mM Tris-HCl pH 7.5, 150 mM NaCl and 1% Triton X-100) containing 10 μg/ml leupeptin, 10 μg/ml aprotinin and 1 mM phenylmethanesulphonyl fluoride (PMSF), supplemented with 10 mM N-ethylmaleimide. Cells were harvested and subjected to western blotting using anti-HA antibody to detect ubiquitination.

HT29 cell line = test: Invasion assay, HT29 (dose/response); format: cell-based, human; conditions: for cell invasion: treated 48 h, 1 μM, 10 μM, 50 μM, vs DMSO
Procedure: [The procedure below names another cell line; the source lists this cell line under the same test.] For invasion assays, cells were treated with Hakin-1 or DMSO as vehicle for 48 h using 1% FBS during the last 24 hours. 3×10^5 MDCK, MDCK-Hakai or LoVo cells were seeded in a cell invasion chamber (Cell invasion assay kit, Chemicon International) containing medium with 2% FBS. After 72 hours for MDCK and MDCK-Hakai Invasive and 16 h for LoVo cells, invasive cells invaded that reach the lower chamber containing 30% FBS were fixed and stained with crystal violet (Sigma Aldrich, St Louis, Mo.) following the manufacturer's specifications. For migration assays, HT29 cells were cultured with Hakin-1 or DMSO as vehicle for 48 h, using medium without serum the last 24 h. In the cell migration chamber were seeded 3×10^5 HT29 cells (Cell migration kit, Millipore, Bedford, Mass.) containing medium without serum. After 16 h, migrated cells in the lower chamber containing serum with 30% FBS were stained with crystal violet and counted following the manufacturer's specifications. For both invasion and migration assays cells were counted in five fields photographed with an Olympus microscope using a 20× objective, experiments were performed in triplicates for each condition and the assays were repeated at least three times. Results are expressed as mean±SD.

[2] = system: human cryopreserved hepatocytes; test: Hepatocyte stability, human; format: in vitro ADME; conditions: 3 μM
Procedure: Test compound (final substrate concentration 3 μM; final DMSO concentration 0.25%) were pre-incubated at 37° C., prior to the addition of a suspension of cryopreserved hepatocytes (final cell density 0.5×10^6 viable cells/mL in Williams E media supplemented with 2 mM L glutamine and 25 mM HEPES) to initiate the reaction. The reactions were stopped with acetonitrile containing internal standard at the appropriate time points ([…]). The termination plates were centrifuged at 2500 rpm at 4° C. for 30 minute to precipitate the protein. Following the hepatocyte stability assays, the samples were utilized for metabolite profiling. Hepatocyte stability in mouse and human was performed by using the incubation of tested compound (3 μM) with cryopreserved hepatocytes in suspension. Samples were removed at 6 time points over the course of a 60 min experiment and remaining test compound at each time point was analysed by using LC-MS/MS. Then, data was analysed and an intrinsic clearance (CLint) with standard error and half-life (t½) reported.

HT-29 cells = test: Immunofluorescence of E-cadherin, HT-29; format: cell-based, human
Procedure: For western blot analysis, cells were treated with the indicated inhibitors for 48 h and the whole cell extracts were obtained as described previously. Twenty micrograms of lysates were resolved on a 10% polyacrilamide SDS-PAGE followed by western blot analysis performed as previously described. For immunofluorescence assays cells were grown for 24 h on glass coverslips and treated with the indicated inhibitors for 48 h. Cells were fixed with 4% PFA for 15 min, permeabilized with 0.5% […] and incubated with E-cadherin antibody for 2 h. Coverslips were incubated with fluorescein-tagged secondary antibody (Dakopatts, Sweden) for […]. Finally coverslips were mounted with ProLong Gold antifade reagent (LifeTech, UK) and images were taken in epifluorescence microscope (Olympus) using 40× objective. Immunofluorescence of E-cadherin and DNA content analysis for FIGS. 22-23 were performed culturing of HT-29 human colorectal adenocarcinoma cell line in 384-well plates with densities of 3,000 cells per well in a total volume of 25 μl. After the completion of the staining, four images (2×2 array) of each well were taken with Vala Sciences' SIM™ with a 20× objective. Each image was acquired as a SIM Synthetic Focus with a z-stack range of 6 μm with 1 μm steps. The SIM Synthetic Focus feature will compile a “best focus” images from multiple images. One set of SIM Synthetic Focus images were taken in the DAPI channel for Hoechst 33342 staining, and another set of images were taken in the FITC channel for anti-E-cadherin-AlexaFluor488 labeling and analysed by Structured Illumination Microscopy (SIM™) platform to image the cells and Vala's CyteSeer® Cell-Cell Junction Algorithm to quantify the degree of expression and intracellular location of E-cadherin Vala's CyteSeer® Software can also measure relative DNA content by analyzing Total Integrated Intensity (TII) of the Nuclear Image (Ni) on the Nuclear Mask (Nm). This analysis was performed by Vala Science. Twenty compounds from were assayed in a “blinded” manner, at 2 test concentrations in 6 replicate wells for first assay and 3 replicate for second assay.

SMILES	Hakai protein levels ([1]; 293T cells transfected with Src, Flag-Hakai and HA-ubiquitin)	ubiquitination mediated by Hakai ([1]; 293T cells transfected with Src, Flag-Hakai and HA-ubiquitin, western blotting anti-HA)	cell invasion (HT29 cell line)	compound remaining after 60 min [2]	E-cadherin levels at cell-cell contacts (immunofluorescence) (HT-29 cells; 48 h, vs DMSO)	Hakai-induced ubiquitination ([1]; HEK293T cells transfected with Hakai and ubiquitin)	IC50 (HT29 cell line; Homo sapiens, HT-29, treated 48 h, read-out: concentration at which 50% inhibition of invasion was achieved) [nM]	E-cadherin expression at cell-cell contacts (immunofluorescence, Image J) (HT-29 cells; 48 hours, 5-100 μM, vs DMSO vehicle control)
O=C(O)c1ccc(-n2nnnc2SCC(=O)c2ccc([N+](=O)[O-])cc2)cc1 [Hakin-1, 4-(5-[2-(4-nitrophenyl)-2-oxoethyl]thiol-1H-tetrazol-1-yl)benzoic acid]	no effect was seen in Hakai protein levels; also recorded: without affecting Hakai protein levels	strongly reduces the ubiquitination mediated by Hakai in a doses dependent-manner; also recorded: specific inhibitor for Hakai-mediated ubiquitination	reduce cell invasion	77.3%	significant increase E-cadherin levels at cell-cell contacts	–	–	–
O=C(O)c1ccc(-n2nnnc2SCC(O)c2ccc([N+](=O)[O-])cc2)cc1 (stereo not shown) [MKH1]	–	–	reduce cell invasion	95%-100%	–	reduced ubiquitination at 20 μM and 100 μM	~1000	significantly increase expression of E-cadherin
